Results as given in PubChem BioAssay AID2060342 (Molecular Pharmacology Branch, DTP, NCI, 2025).

Test system: 171881-019-R-J1-PDC multicell spheroid viability
Test: Anticancer human tumor 171881-019-R-J1-PDC patient-derived invasive breast carcinoma cell line growth inhibition [IpAb]
Details: for IC50: curve of first compound; for viability, T/C: stronger effect = lower value
In short: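 Combinations with ipatasertib or abemaciclib were tested on tumour spheroids holding HUVEC (25%) and MSC (15%) alongside 60% malignant cells. Top concentration was at or near clinical Cmax (10 microM if undefined), descending in half-log steps.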

[1] = second compound 0.01 µM, first compound 0.00316 µM
[2] = second compound 0.01 µM, first compound 0.01 µM
[3] = second compound 0.01 µM, first compound 0.0316 µM
[4] = second compound 0.01 µM, first compound 0.1 µM
[5] = second compound 0.0316 µM, first compound 0.00316 µM
[6] = second compound 0.0316 µM, first compound 0.01 µM
[7] = second compound 0.0316 µM, first compound 0.0316 µM
[8] = second compound 0.0316 µM, first compound 0.1 µM
[9] = second compound 0.1 µM, first compound 0.00316 µM
[10] = second compound 0.1 µM, first compound 0.01 µM
[11] = second compound 0.1 µM, first compound 0.0316 µM
[12] = second compound 0.1 µM, first compound 0.1 µM
[13] = second compound 0.316 µM, first compound 0.00316 µM
[14] = second compound 0.316 µM, first compound 0.01 µM
[15] = second compound 0.316 µM, first compound 0.0316 µM
[16] = second compound 0.316 µM, first compound 0.1 µM
[17] = second compound 1 µM, first compound 0.00316 µM
[18] = second compound 1 µM, first compound 0.01 µM
[19] = second compound 1 µM, first compound 0.0316 µM
[20] = second compound 1 µM, first compound 0.1 µM
[21] = second compound 0.01 µM, first compound 0.316 µM
[22] = second compound 0.01 µM, first compound 1 µM
[23] = second compound 0.01 µM, first compound 3.16 µM
[24] = second compound 0.01 µM, first compound 10 µM
[25] = second compound 0.0316 µM, first compound 0.316 µM
[26] = second compound 0.0316 µM, first compound 1 µM
[27] = second compound 0.0316 µM, first compound 3.16 µM
[28] = second compound 0.0316 µM, first compound 10 µM
[29] = second compound 0.1 µM, first compound 0.316 µM
[30] = second compound 0.1 µM, first compound 1 µM
[31] = second compound 0.1 µM, first compound 3.16 µM
[32] = second compound 0.1 µM, first compound 10 µM
[33] = second compound 0.316 µM, first compound 0.316 µM
[34] = second compound 0.316 µM, first compound 1 µM
[35] = second compound 0.316 µM, first compound 3.16 µM
[36] = second compound 0.316 µM, first compound 10 µM
[37] = second compound 1 µM, first compound 0.316 µM
[38] = second compound 1 µM, first compound 1 µM
[39] = second compound 1 µM, first compound 3.16 µM
[40] = second compound 1 µM, first compound 10 µM
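Further: spheroids exposed to the agents for seven days before readout.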

| SMILES | IC50 (second compound 0.01 µM) [nM] | IC50 (second compound 0.0316 µM) [nM] | IC50 (second compound 0.1 µM) [nM] | IC50 (second compound 0.316 µM) [nM] | IC50 (second compound 1 µM) [nM] | viability, T/C [3] [%] | viability, T/C [4] [%] | viability, T/C [7] [%] | viability, T/C [8] [%] | viability, T/C [11] [%] | viability, T/C [12] [%] | viability, T/C [15] [%] | viability, T/C [16] [%] | viability, T/C [19] [%] | viability, T/C [20] [%] | viability, T/C [21] [%] | viability, T/C [22] [%] | viability, T/C [25] [%] | viability, T/C [26] [%] | viability, T/C [29] [%] | further results |
| --- | --- | --- | --- | --- | --- | --- | --- | --- | --- | --- | --- | --- | --- | --- | --- | --- | --- | --- | --- | --- | --- |
| CC(C)n1nc(-c2ccc3oc(N)nc3c2)c2c(N)ncnc21 + CCN1CCN(Cc2ccc(Nc3ncc(F)c(-c4cc(F)c5nc(C)n(C(C)C)c5c4)n3)nc2)CC1 | 5.63 | 5.98 | 5.6 | 6.25 | 9.54 | 4.34 | 2.21 | 5.1 | 2.53 | 5.52 | 2.76 | 9.75 | 3.47 | 21.4 | 10.4 | – | – | – | – | – | viability, T/C (second compound 0.01 µM, first compound 0.000316 µM): 99%; viability, T/C (second compound 0.01 µM, first compound 0.001 µM): 102%; viability, T/C [1]: 73.9%; viability, T/C [2]: 25.7%; viability, T/C (second compound 0.0316 µM, first compound 0.000316 µM): 97.9%; viability, T/C (second compound 0.0316 µM, first compound 0.001 µM): 112%; viability, T/C [5]: 80.5%; viability, T/C [6]: 24.8%; viability, T/C (second compound 0.1 µM, first compound 0.000316 µM): 114%; viability, T/C (second compound 0.1 µM, first compound 0.001 µM): 103%; viability, T/C [9]: 75.8%; viability, T/C [10]: 24.3%; viability, T/C (second compound 0.316 µM, first compound 0.000316 µM): 131%; viability, T/C (second compound 0.316 µM, first compound 0.001 µM): 106%; viability, T/C [13]: 81.4%; viability, T/C [14]: 28.5%; viability, T/C (second compound 1 µM, first compound 0.000316 µM): 140%; viability, T/C (second compound 1 µM, first compound 0.001 µM): 125%; viability, T/C [17]: 89.8%; viability, T/C [18]: 48.6% |
| CC1(C)CCC(CN2CCN(c3ccc(C(=O)NS(=O)(=O)c4ccc(NCC5CCOCC5)c([N+](=O)[O-])c4)c(Oc4cnc5[nH]ccc5c4)c3)CC2)=C(c2ccc(Cl)cc2)C1 + CCN1CCN(Cc2ccc(Nc3ncc(F)c(-c4cc(F)c5nc(C)n(C(C)C)c5c4)n3)nc2)CC1 | 5420 | 6190 | 5540 | 5970 | 6550 | 84.5 | 79 | 89.7 | 86.7 | 109 | 105 | 120 | 117 | 138 | 139 | 76.6 | 72.4 | 86.8 | 70.4 | 98.9 | viability, T/C [23]: 83.4%; viability, T/C [24]: 16.6%; viability, T/C [27]: 89.3%; viability, T/C [28]: 25.3%; viability, T/C [30]: 89%; viability, T/C [31]: 79%; viability, T/C [32]: 22.9%; viability, T/C [33]: 109%; viability, T/C [34]: 99.7%; viability, T/C [35]: 89.2%; viability, T/C [36]: 21.1%; viability, T/C [37]: 136%; viability, T/C [38]: 128%; viability, T/C [39]: 104%; viability, T/C [40]: 18.4% |
| CCCS(=O)(=O)Nc1ccc(F)c(C(=O)c2c[nH]c3ncc(-c4ccc(Cl)cc4)cc23)c1F + CCN1CCN(Cc2ccc(Nc3ncc(F)c(-c4cc(F)c5nc(C)n(C(C)C)c5c4)n3)nc2)CC1 | > 10000 | > 10000 | > 10000 | > 10000 | > 10000 | 103 | 80.8 | 96.1 | 88.5 | 113 | 94.9 | 123 | 129 | 143 | 143 | 98.6 | 87 | 90.9 | 91.6 | 107 | viability, T/C [23]: 82.9%; viability, T/C [24]: 83.9%; viability, T/C [27]: 85.4%; viability, T/C [28]: 92.3%; viability, T/C [30]: 98.4%; viability, T/C [31]: 95.5%; viability, T/C [32]: 94.1%; viability, T/C [33]: 112%; viability, T/C [34]: 113%; viability, T/C [35]: 106%; viability, T/C [36]: 99.2%; viability, T/C [37]: 141%; viability, T/C [38]: 137%; viability, T/C [39]: 130%; viability, T/C [40]: 119% |
| COc1c(OCCCN2CCOCC2)ccc2c3n(c(=NC(=O)c4cnc(N)nc4)nc12)CCN3 + CCN1CCN(Cc2ccc(Nc3ncc(F)c(-c4cc(F)c5nc(C)n(C(C)C)c5c4)n3)nc2)CC1 | 19.5 | 21.1 | 20.3 | 23.5 | 31.5 | 31.9 | 5.33 | 38.7 | 4.99 | 31.9 | 5.31 | 45.3 | 7.2 | 56.6 | 17.2 | 1 | 1.29 | 1 | 1.5 | 0.99 | viability, T/C [1]: 115%; viability, T/C [2]: 76.6%; viability, T/C [5]: 113%; viability, T/C [6]: 76.2%; viability, T/C [9]: 115%; viability, T/C [10]: 80.2%; viability, T/C [30]: 1.13%; viability, T/C [13]: 110%; viability, T/C [14]: 76.1%; viability, T/C [33]: 1.95%; viability, T/C [34]: 1.08%; viability, T/C [17]: 121%; viability, T/C [18]: 82.6%; viability, T/C [37]: 4.08%; viability, T/C [38]: 2% |
| Cc1nc(NC(=O)N2CCCC2C(N)=O)sc1-c1ccnc(C(C)(C)C(F)(F)F)c1 (stereo not given) + CCN1CCN(Cc2ccc(Nc3ncc(F)c(-c4cc(F)c5nc(C)n(C(C)C)c5c4)n3)nc2)CC1 | 783 | 733 | 823 | 977 | 1560 | 109 | 112 | 118 | 108 | 117 | 112 | 130 | 112 | 137 | 117 | 72 | 44.7 | 75.7 | 40.9 | 75.9 | viability, T/C [23]: 15.7%; viability, T/C [24]: 1.42%; viability, T/C [27]: 13.5%; viability, T/C [28]: 2.7%; viability, T/C [30]: 44.9%; viability, T/C [31]: 18.3%; viability, T/C [32]: 2.71%; viability, T/C [33]: 85.7%; viability, T/C [34]: 47.2%; viability, T/C [35]: 23%; viability, T/C [36]: 4.63%; viability, T/C [37]: 89.8%; viability, T/C [38]: 64.1%; viability, T/C [39]: 29.7%; viability, T/C [40]: 8.19% |
